Tests used:
NLRP3 [1] = target: T1, NLRP3 (Homo sapiens, UniProt Q96P20); assay: THP-1 pyroptosis assay (caspase-1 p20 in supernatant by Western blot); format: cell-based; settings: PMA-differentiated THP-1, LPS 50 ng/ml 4 h, compound 30 min, nigericin 15 μM 45 min; caspase-1 p20 Western blot
T1 construct: host or cells: THP-1 cells, PMA-differentiated, LPS-primed, nigericin-stimulated
Protocol: (§1) THP-1 cell lines (procell, #CL-0233) were cultured in RPMI-1640 medium (Gibco, #C11875500BT) supplemented with 10% FBS, 100 U/ml penicillin, 100 µg/ml streptomycin and 0.05 mM β-mercaptoethanol (BME). THP-1 cells were seeded at 5×10^5/ml in 12 well plates and were differentiated into macrophages by incubation with 5 ng/ml PMA (Sigma, #P8139-1MG) for 48 h. Cells were washed with PBS and then were primed with 50 ng/ml LPS (InvivoGen, #tlrl-b5lps) for 4 h. Medium were removed and replaced with serum free medium (SFM) containing compound (2.5-40 nM) or MCC950 (5-25 nM) for 30 min. Cells were then stimulated with 15 μM nigericin (Invivogen, #tlrl-nig) for 45 min.
The protein of supernatants was concentrated using StrataClean™ resin (Agilent, #400714) according to the manufacturer's instructions. The protein samples were resolved on 4-20% SDS-PAGE gels and transferred onto 0.45 PVDF membrane (Immobilon-P #IPVH00010) using a wet transfer system. Membranes were blocked in 5% (w/v) dried milk in PBST for 1 h at room temperature. Membranes were incubated with primary antibody (Adipogen, #AG-20B-0048B-C100) diluted in Primary Antibody Dilution Buffer (Beyotime, #P0023A-100 ml) according to the manufacturer's instructions, followed by incubation with the IgG(H+L) (HRP-labeled Goat Anti-Mouse IgG(H+L) (Beyotime, #A0216) diluted in 1% (w/v) dried milk in PBST for 1 h. The protein expression was visualized using Super ECL Detection Reagent (YEASEN,
FIG. 1. Results of Western blots for THP-1 cell-based pyroptosis assay using the cleavage of caspase-1 into p20 as reporting indication of NLRP3 inhibition. […] Molecule N-027 (Compound #51) and N-027B (Compound #53) inhibits NLRP3 inflammasome activation in macrophages, N-027 IC50 (caspase-1)<5 nM; N-027B IC50 (caspase-1) 1 nM. THP-1 cells were primed for 4 h with LPS (50 ng/ml), and then LPS-primed THP-1 cells were incubated with N-027 or N-027B for 30 min and then stimulated with nigericin (15 μM) for 45 min. Caspase-1 (p20) in supernatants were measured by Western blots.

NLRP3 [2] = target: T1, NLRP3; assay: IL-1β assay (ELISA of THP-1 culture supernatant); format: cell-based; settings: PMA-differentiated THP-1, LPS 50 ng/ml 4 h, compound 30 min, nigericin 15 μM 45 min; Human IL-1β ELISA
Protocol: as §1
The culture supernatant of THP-1 was removed and analyzed using Human IL-1β ELISA Kit according to the manufacturer's instructions (Beyotime, #PI305). The IL-1β concentration was measured at 450 nm wavelength of absorbance and calculated.

T1 sequence (Q96P20 whole entry): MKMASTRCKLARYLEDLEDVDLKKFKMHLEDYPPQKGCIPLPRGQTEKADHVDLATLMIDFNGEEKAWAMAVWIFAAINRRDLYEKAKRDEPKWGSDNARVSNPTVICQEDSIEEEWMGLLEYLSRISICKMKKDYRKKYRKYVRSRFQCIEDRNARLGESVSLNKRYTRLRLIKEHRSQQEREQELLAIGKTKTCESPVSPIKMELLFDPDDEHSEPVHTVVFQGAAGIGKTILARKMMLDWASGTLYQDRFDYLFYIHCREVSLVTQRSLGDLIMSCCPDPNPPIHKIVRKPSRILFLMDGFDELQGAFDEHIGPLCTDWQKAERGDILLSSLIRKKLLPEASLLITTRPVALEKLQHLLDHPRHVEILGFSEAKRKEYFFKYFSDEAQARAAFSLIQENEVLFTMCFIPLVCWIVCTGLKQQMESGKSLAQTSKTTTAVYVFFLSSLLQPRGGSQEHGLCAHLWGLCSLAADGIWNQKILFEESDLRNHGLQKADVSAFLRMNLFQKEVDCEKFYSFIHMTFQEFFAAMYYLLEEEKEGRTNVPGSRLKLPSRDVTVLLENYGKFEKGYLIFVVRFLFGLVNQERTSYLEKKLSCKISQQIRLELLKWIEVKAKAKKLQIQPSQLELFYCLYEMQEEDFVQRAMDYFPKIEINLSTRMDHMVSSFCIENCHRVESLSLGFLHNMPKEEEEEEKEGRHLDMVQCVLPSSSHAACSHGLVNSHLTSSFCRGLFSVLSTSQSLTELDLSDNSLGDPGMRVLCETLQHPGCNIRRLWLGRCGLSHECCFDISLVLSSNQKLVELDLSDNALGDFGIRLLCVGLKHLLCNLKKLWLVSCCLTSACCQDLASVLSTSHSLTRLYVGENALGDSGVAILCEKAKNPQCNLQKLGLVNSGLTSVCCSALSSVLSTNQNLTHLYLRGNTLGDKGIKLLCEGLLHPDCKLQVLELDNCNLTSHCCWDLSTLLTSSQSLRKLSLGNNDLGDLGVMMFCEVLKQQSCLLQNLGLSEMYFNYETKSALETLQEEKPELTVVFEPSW

Row | IC50 (NLRP3 [1]) | IC50 (NLRP3 [2]) | Structure (SMILES)
1 | < 2.5 nM | < 20 nM | Cc1cc(Br)cc(C)c1-n1nc2nc(N3CCOCC3)[nH]c(=O)c2n1 [Compound 1, 2-(4-bromo-2,6-dimethylphenyl)-5-morpholino-2,6-dihydro-7H-[1,2,3]triazolo[4,5-d]pyrimidin-7-one]
2 | < 1600 nM | < 1600 nM | Cc1cc(Br)cc(C)c1-n1nc2nc(N3CCOCC3)[nH]c(=S)c2n1 [Compound 2, 2-(4-bromo-2,6-dimethylphenyl)-5-morpholino-2,6-dihydro-7H-[1,2,3]triazolo[4,5-d]pyrimidine-7-thione]
3 | < 5 nM | < 15 nM | Cc1cc(C2CC2)cc(C)c1-n1nc2nc(N3CCOCC3)[nH]c(=O)c2n1 [Compound 3, 2-(4-cyclopropyl-2,6-dimethylphenyl)-5-morpholino-2,6-dihydro-7H-[1,2,3]triazolo[4,5-d]pyrimidin-7-one]
4 | > 1000 nM | > 1000 nM | Cc1cc(C2CC2)cc(C)c1-n1nc2nc(N3CCOCC3)[nH]c(=S)c2n1 [Compound 4, 2-(4-cyclopropyl-2,6-dimethylphenyl)-5-morpholino-2,6-dihydro-7H-[1,2,3]triazolo[4,5-d]pyrimidine-7-thione]
5 | < 5 nM | < 5 nM | Cc1cc(Br)cc(C)c1-n1nc2nc(N3CCCC3)[nH]c(=O)c2n1 [Compound 51, 2-(4-bromo-2,6-dimethylphenyl)-5-(pyrrolidin-1-yl)-2,6-dihydro-7H-[1,2,3]triazolo[4,5-d]pyrimidin-7-one]
6 | < 50 nM | < 500 nM | Cc1cc(Br)cc(C)c1-n1nc2nc(N3CCCC3)[nH]c(=S)c2n1 [Compound 52, 2-(4-bromo-2,6-dimethylphenyl)-5-(pyrrolidin-1-yl)-2,6-dihydro-7H-[1,2,3]triazolo[4,5-d]pyrimidine-7-thione]
7 | ≤ 1 nM | < 5 nM | Cc1cc(C2CC2)cc(C)c1-n1nc2nc(N3CCCC3)[nH]c(=O)c2n1 [Compound 53, 2-(4-cyclopropyl-2,6-dimethylphenyl)-5-(pyrrolidin-1-yl)-2,6-dihydro-7H-[1,2,3]triazolo[4,5-d]pyrimidin-7-one]
8 | < 100 nM | < 100 nM | Cc1cc(C2CC2)cc(C)c1-n1nc2nc(N3CCCC3)[nH]c(=S)c2n1 [Compound 54, 2-(4-cyclopropyl-2,6-dimethylphenyl)-5-(pyrrolidin-1-yl)-2,6-dihydro-7H-[1,2,3]triazolo[4,5-d]pyrimidine-7-thione]
9 | 10 nM |  | Cc1cc(Cl)cc(C)c1-n1nc2nc(N3CCCC3)[nH]c(=O)c2n1 [Compound 63, 2-(4-chloro-2,6-dimethylphenyl)-5-(pyrrolidin-1-yl)-2,6-dihydro-7H-[1,2,3]triazolo[4,5-d]pyrimidin-7-one]
10 | 2.5 nM | < 10 nM | O=c1[nH]c(N2CCCC2)nc2nn(-c3ccc(Br)cc3C(F)(F)F)nc12 [Compound 75, 2-(4-bromo-2-(trifluoromethyl)phenyl)-5-(pyrrolidin-1-yl)-2,6-dihydro-7H-[1,2,3]triazolo[4,5-d]pyrimidin-7-one]
11 | < 10 nM | < 10 nM | O=c1[nH]c(N2CCCC2)nc2nn(-c3ccc(C4CC4)cc3C(F)(F)F)nc12 [Compound 77, 2-(4-cyclopropyl-2-(trifluoromethyl)phenyl)-5-(pyrrolidin-1-yl)-2,6-dihydro-7H-[1,2,3]triazolo[4,5-d]pyrimidin-7-one]
12 | 7.5 nM | < 15 nM | O=c1[nH]c(N2CCCC2)nc2nn(-c3c(Cl)cc(Br)cc3Cl)nc12 [Compound 91, 2-(4-bromo-2,6-dichlorophenyl)-5-(pyrrolidin-1-yl)-2,6-dihydro-7H-[1,2,3]triazolo[4,5-d]pyrimidin-7-one]
13 | < 6.2 nM | < 6.2 nM | CCN(CC)c1nc2nn(-c3c(C)cc(Br)cc3C)nc2c(=O)[nH]1 [Compound 95, 2-(4-bromo-2,6-dimethylphenyl)-5-(diethylamino)-2,6-dihydro-7H-[1,2,3]triazolo[4,5-d]pyrimidin-7-one]
14 | 5 nM | < 20 nM | O=c1[nH]c(N2CCCC2)nc2nn(-c3ccc(Br)cc3Cl)nc12 [Compound 97, 2-(4-bromo-2-chlorophenyl)-5-(pyrrolidin-1-yl)-2,6-dihydro-7H-[1,2,3]triazolo[4,5-d]pyrimidin-7-one]
15 | 7.5 nM | < 15 nM | O=c1[nH]c(N2CCCC2)nc2nn(-c3c(F)cc(Br)cc3Cl)nc12 [Compound 98, 2-(4-bromo-2-chloro-6-fluorophenyl)-5-(pyrrolidin-1-yl)-2,6-dihydro-7H-[1,2,3]triazolo[4,5-d]pyrimidin-7-one]
16 | < 10 nM | < 20 nM | O=c1[nH]c(N2CCCC2)nc2nn(-c3c(F)cc(Br)cc3F)nc12 [Compound 99, 2-(4-bromo-2,6-difluorophenyl)-5-(pyrrolidin-1-yl)-2,6-dihydro-7H-[1,2,3]triazolo[4,5-d]pyrimidin-7-one]
17 | < 100 nM | < 200 nM | CCN1CCN(c2nc3nn(-c4ccc(C5CC5)cc4C(F)(F)F)nc3c(=O)[nH]2)CC1 [Compound 100, 2-(4-cyclopropyl-2-(trifluoromethyl)phenyl)-5-(4-ethylpiperazin-1-yl)-2,6-dihydro-7H-[1,2,3]triazolo[4,5-d]pyrimidin-7-one]
18 | < 10 nM | < 100 nM | Cc1cc(C2CC2)cc(C)c1-n1nc2nc(N(C)CCN(C)C)[nH]c(=O)c2n1 [Compound 101, 2-(4-cyclopropyl-2,6-dimethylphenyl)-5-((2-(dimethylamino)ethyl)(methyl)amino)-2,6-dihydro-7H-[1,2,3]triazolo[4,5-d]pyrimidin-7-one]
19 | < 40 nM | > 100 nM | CCN1CCN(c2nc3nn(-c4c(C)cc(C5CC5)cc4C)nc3c(=O)[nH]2)CC1 [Compound 102, 2-(4-cyclopropyl-2,6-dimethylphenyl)-5-(4-ethylpiperazin-1-yl)-2,6-dihydro-7H-[1,2,3]triazolo[4,5-d]pyrimidin-7-one]
20 | < 10 nM | < 10 nM | O=c1[nH]c(N2CCOCC2)nc2nn(-c3c(F)cc(C4CC4)cc3Cl)nc12 [Compound 103, 2-(2-chloro-4-cyclopropyl-6-fluorophenyl)-5-morpholino-2,6-dihydro-7H-[1,2,3]triazolo[4,5-d]pyrimidin-7-one]
21 | < 6 nM | < 10 nM | Cc1cc(C2CC2)cc(F)c1-n1nc2nc(N3CCOCC3)[nH]c(=O)c2n1 [Compound 104, 2-(4-cyclopropyl-2-fluoro-6-methylphenyl)-5-morpholino-2,6-dihydro-7H-[1,2,3]triazolo[4,5-d]pyrimidin-7-one]
22 | < 6 nM | < 10 nM | O=c1[nH]c(N2CCOCC2)nc2nn(-c3c(F)cc(C4CC4)cc3C(F)(F)F)nc12 [Compound 105, 2-(4-cyclopropyl-2-fluoro-6-(trifluoromethyl)phenyl)-5-morpholino-2,6-dihydro-7H-[1,2,3]triazolo[4,5-d]pyrimidin-7-one]
23 | > 100 nM | > 100 nM | CCN1CCN(c2nc3nn(-c4c(C)cc(C5CC5)cc4F)nc3c(=O)[nH]2)CC1 [Compound 106, 2-(4-cyclopropyl-2-fluoro-6-methylphenyl)-5-(4-ethylpiperazin-1-yl)-2,6-dihydro-7H-[1,2,3]triazolo[4,5-d]pyrimidin-7-one]
24 |  | < 33 nM | Cc1cc(C2CC2)cc(C)c1-n1nc2nc(N3CCOC[C@H]3C)[nH]c(=O)c2n1 [Compound 107, (R)-2-(4-cyclopropyl-2,6-dimethylphenyl)-5-(3-methylmorpholino)-2H-[1,2,3]triazolo[4,5-d]pyrimidin-7(6H)-one]
25 |  | < 500 nM | Cc1cc(C2CC2)cc(C)c1-n1nc2nc(N3CCOCC3)n(C)c(=O)c2n1 [Compound 108, 2-(4-cyclopropyl-2,6-dimethyl-phenyl)-6-methyl-5-morpholino-triazolo[4,5-d]pyrimidin-7-one]
26 |  | > 10000 nM | COc1nc(N2CCOCC2)nc2nn(-c3c(C)cc(C4CC4)cc3C)nc12 [Compound 109, 4-[2-(4-cyclopropyl-2,6-dimethyl-phenyl)-7-methoxy-triazolo[4,5-d]pyrimidin-5-yl]morpholine]
